According to patent US7868205B2, “Inhibitors of histone deacetylase” (MethylGene Inc., priority 2003, dated 2011):
Where two headings read alike, the source gives them in different places.

Key:
human HDAC-1 = human HDAC-1 (Homo sapiens, UniProt Q13547); assay: Inhibition of histone deacetylase enzymatic (HDAC-1) activity; assay type: biochemical
Procedure: The following protocol was used to assay the compounds of the invention.
The mixture was pre-incubated for 5 minutes at room temperature. The reaction was started by bringing the temperature to 37° C. and adding 16 μl substrate.

[1] = system: HCT116 human colon cancer cells; assay: MTT assay, antiproliferative activity; assay type: cell-based; conditions: HCT-116, 72 hours
Procedure: (§1) Table 6C provides data on inhibition of HDAC1 enzyme, on antiproliferative activities (HCT116 human colon cancer cells) of the compounds using 3-[4,5-dimethylthiazol-2-yl-2,5-diphenyltetrazolium]bromide (MTT) assay, as well as induction of p21^WAF1/Cip1 tumor suppressor gene.
Compounds at various concentrations were added to human colon cancer HCT116 cells plated in 96-well plates. Cells were incubated for 72 hours at 37° C. in 5% CO2 incubator. MTT (3-[4,5-dimethylthiazol-2-yl]-2,5 diphenyl tetrazolium bromide, Sigma) was added at a final concentration of 0.5 mg/ml and incubated with the cells for 4 hours before an equal volume of solubilization buffer (50% N,N-dimethylformamide, 20% SDS, pH 4.7) was added onto cultured cells. After overnight incubation, solubilized dye was quantified by colorimetric reading at […] using a reference at 630 nM. OD values were converted to cell numbers according to a standard growth curve of the relevant cell line. The concentration which reduces cell numbers to 50% of those of DMSO-treated cells is determined as MTT IC50,

[2] = system: p21^WAF1/Cip1 tumor suppressor gene; assay: p21WAF1/Cip1 assay (p21 promoter-driven luciferase reporter); assay type: cell-based, human; conditions: reference compound, value designated
Procedure: as §1
HCT116 cells were stably transfected with reporter plasmids encoding the p21 promoter-driven luciferase. Cells were treated with indicated concentration of HDAC inhibitors for 16 hours before cells were harvested and luciferase activity analyzed. The effective concentration (EC) of MS-275 was designated as 1 uM. The ability of HDAC inhibitor was compared with that of MS-275 (T. Suzuki, et. al J. Med. Chem., 1999, 3001-3003).

[3] = Table 6A, comparative data for planar substituent, read-out: HDAC-1 activity (μm)
[4] = Table 6B, comparative data for planar substituent, read-out: HDAC-1 Activity
[5] = Table 5, Boc-Lys(Ac)-AMC substrate, 37° C., 20 minutes, read-out: HDAC-1 (μM), inhibition of histone deacetylase

Sequence of human HDAC-1 (Q13547 whole entry): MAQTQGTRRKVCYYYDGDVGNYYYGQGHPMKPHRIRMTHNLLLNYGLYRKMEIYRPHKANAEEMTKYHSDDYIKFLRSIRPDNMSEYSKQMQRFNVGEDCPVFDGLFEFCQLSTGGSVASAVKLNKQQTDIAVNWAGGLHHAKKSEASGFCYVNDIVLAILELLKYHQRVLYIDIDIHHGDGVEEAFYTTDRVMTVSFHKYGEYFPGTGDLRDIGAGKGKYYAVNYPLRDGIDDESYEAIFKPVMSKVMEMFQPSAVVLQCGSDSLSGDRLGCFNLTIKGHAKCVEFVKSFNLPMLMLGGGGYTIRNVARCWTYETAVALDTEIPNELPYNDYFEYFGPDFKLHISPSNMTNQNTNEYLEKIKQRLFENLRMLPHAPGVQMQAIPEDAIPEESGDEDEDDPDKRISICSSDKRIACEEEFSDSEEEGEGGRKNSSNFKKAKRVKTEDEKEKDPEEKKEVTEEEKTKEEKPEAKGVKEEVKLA

IC50 (human HDAC-1; [5])	IC50 [1]	IC50 (human HDAC-1; Table 6C)	SMILES	also measured
–	< 1 µM	–	Nc1ccc(-c2cccs2)cc1NC(=O)c1ccc(CNC(=O)OCc2cccnc2)cc1 [Compound 143a]	–
–	1 to 20 µM	< 1 µM	Nc1ccc(-c2cccs2)cc1NC(=O)c1ccc(F)cc1 [Compound 143b]	–
–	1 to 20 µM	< 1 µM	Nc1ccc(-c2cccs2)cc1NC(=O)c1ccc(SC(F)(F)F)cc1 [Compound 143c]	–
–	< 1 µM	< 1 µM	Cc1ccc(S(=O)(=O)Nc2ccc(/C=C/C(=O)Nc3cc(-c4cccs4)ccc3N)cc2)cc1 [Compound 146]	–
–	< 1 µM	< 1 µM	Nc1ccc(-c2cccs2)cc1NC(=O)c1ccc(CN2CCOCC2)cc1 [Compound 242]	–
–	< 1 µM	< 1 µM	Nc1ccc(-c2cccs2)cc1NC(=O)c1ccc2c(c1)OCO2 [Compound 256a]	–
–	< 1 µM	< 1 µM	Nc1ccc(-c2cccs2)cc1NC(=O)c1ccc2c(c1)OCCO2 [Compound 256b]	–
–	< 1 µM	< 1 µM	COc1cc(C(=O)Nc2cc(-c3cccs3)ccc2N)cc2c1OCO2 [Compound 256c]	–
–	< 1 µM	< 1 µM	Cn1cnc2cc(C(=O)Nc3cc(-c4cccs4)ccc3N)ccc21 [Compound 283]	–
–	1 to 20 µM	< 1 µM	Cn1nnc2cc(C(=O)Nc3cc(-c4cccs4)ccc3N)ccc21 [Compound 286]	–
< 1 µM	–	–	COc1ccc(NCc2ccc(C(=O)Nc3cc(-c4cccs4)ccc3N)cc2)cc1F [Cpd 12, N-[2-amino-5-(2-thienyl)phenyl]-4{[(3-fluoro-4-methoxyphenyl)amino]methyl}benzamide]	–
1 to 20 µM	–	–	COc1ccc(NCc2ccc(C(=O)Nc3ccc(-c4cccs4)cc3N)cc2)cc1OC [Cpd 16, N-[2-amino-4-(2-thienyl)phenyl]-4-{[(3,4-dimethoxyphenyl)amino]methyl}benzamide]	–
1 to 20 µM	–	–	COc1ccc(NCc2ccc(C(=O)Nc3ccc(Br)cc3N)cc2)cc1OC [Cpd 18, N-(2-amino-4-bromophenyl)-4-{[(3,4-dimethoxyphenyl)amino]methyl}benzamide]	–
< 1 µM	–	–	COc1cc(CN2CCc3ccc(C(=O)Nc4cc(-c5cccs5)ccc4N)cc32)cc(OC)c1OC [Cpd 23, N-[2-amino-5-(2-thienyl)phenyl]-1-(3,4,5-trimethoxybenzyl)indoline-6-carboxamide]	–
1 to 20 µM	–	–	COc1ccc(NCc2ccc(C(=O)Nc3cc(Cl)c(F)cc3N)cc2)cc1OC [Cpd 35, N-(2-Amino-5-chloro-4-fluoro-phenyl)-4-[(3,4-dimethoxy-phenylamino)-methyl]-benzamide]	–
< 1 µM	–	–	CN(C)CCOc1ccc2nc(SCc3ccc(C(=O)Nc4cc(-c5cccs5)ccc4N)cc3)[nH]c2c1 [Cpd 50, N-[2-amino-5-(2-thienyl)phenyl]-4[({6-[2-(dimethylamino)ethoxy]-1H-benzimidazol-2-yl}thio)methyl]benzamide]	–
> 20 µM	–	–	COc1ccc(NCc2ccc(C(=O)Nc3csc(-c4ccccc4)c3N)cc2)cc1OC [Cpd 61, N-(4-amino-5-phenyl-3-thienyl)-4-{[(3,4-dimethoxyphenyl)amino]methyl}benzamide]	–
< 1 µM	–	–	COc1cc(NCc2ccc(/C=C/C(=O)Nc3cc(-c4cccs4)ccc3N)cc2)cc(OC)c1OC [Cpd 67, trans-N-[2-amino-5-(2-thienyl)phenyl]-3-(4-{[(3,4,5-trimethoxyphenyl)amino]methyl}phenyl)acrylamide]	–
1 to 20 µM	–	–	CCCCc1ccc(N)c(NC(=O)c2ccc(CNc3ccc(OC)c(OC)c3)cc2)c1 [Cpd 68, N-(2-amino-5-butylphenyl)-4-{[(3,4-dimethoxyphenyl)amino]methyl}benzamide]	–
1 to 20 µM	–	–	COc1ccc(NCc2ccc(C(=O)Nc3c(N)cccc3N)cc2)cc1OC [Cpd 94, N-[2,6-diaminophenyl]-4-{[(3,4-dimethoxyphenyl)amino]methyl}benzamide]	–

Second part, the compound before the results:

SMILES	IC50 (human HDAC-1; [5])	IC50 [1]	IC50 (human HDAC-1; Table 6C)	also measured
COc1ccc(NCc2ccc(C(=O)Nc3cc(C(F)(F)F)ccc3N)cc2)cc1OC [A, reference compound]	–	–	–	IC50 (human HDAC-1; [3]): 1 to 20 µM
COc1ccc(NCc2ccc(C(=O)Nc3ccccc3N)cc2)cc1OC [AAA, reference compound]	–	–	–	IC50 (human HDAC-1; [3]): < 1 µM; IC50 (human HDAC-1; [4]): < 1 µM
COc1ccc(NCc2ccc(C(=O)Nc3cc(F)c(F)cc3N)cc2)cc1OC [B, N-(2-amino-4,5-difluorophenyl)-4-{[(3,4-dimethoxyphenyl)amino]methyl}benzamide, reference compound]	1 to 20 µM	–	–	–
CN1CCN(C(=O)Nc2ccc(C(=O)Nc3cc(-c4cccs4)ccc3N)cc2)CC1 [Compound 164]	–	< 1 µM	< 1 µM	–
N#Cc1ccc(C(=O)Nc2cc(-c3cccs3)ccc2N)cc1 [Compound 173]	–	1 to 20 µM	< 1 µM	–
COc1cccc(C(=O)Nc2cc(-c3cccs3)ccc2N)c1 [Compound 181]	–	< 1 µM	< 1 µM	–
CC(=O)Oc1ccc(C(=O)Nc2cc(-c3cccs3)ccc2N)cc1 [Compound 184]	–	< 1 µM	< 1 µM	–
COc1cc(OC)c2cc(C(=O)Nc3cc(-c4cccs4)ccc3N)oc2c1 [Compound 245e]	–	< 1 µM	< 1 µM	–
Nc1ccc(-c2cccs2)cc1NC(=O)c1ccc2[nH]cnc2c1 [Compound 258d]	–	< 1 µM	< 1 µM	–
COc1ccc(NCc2ccc(C(=O)Nc3cc(-c4cccs4)ccc3[N+](=O)[O-])cc2)cc1OC [Cpd 5, 4-[(3,4-dimethoxy-phenylamino)-methyl]-N-(2-nitro-5-thiophen-2-yl-phenyl)-benzamide]	> 20 µM	–	–	–
COc1ccc(NCc2ccc(C(=O)Nc3cc(-c4cccs4)ccc3N)cc2)cc1OC [Cpd 6, N-[2-amino-5-(2-thienyl)phenyl]-4{[(3,4-dimethoxyphenyl)amino]methyl}benzamide]	< 1 µM	–	–	–
COc1ccc(NCc2ccc(C(=O)Nc3ccc(-c4cccs4)cc3[N+](=O)[O-])cc2)cc1OC [Cpd 15, 4-[(3,4-dimethoxy-phenylamino)-methyl]-N-(2-nitro-4-thiophen-2-yl-phenyl)-benzamide]	> 20 µM	–	–	–
COc1cc(NCc2ccc3oc(C(=O)Nc4cc(-c5cccs5)ccc4N)cc3c2)cc(OC)c1OC [Cpd 29, N-[2-amino-5-(2-thienyl)phenyl]-5-{[(3,4,5-trimethoxyphenyl)amino]methyl}-1-benzofuran-2-carboxamide]	< 1 µM	–	–	–
COc1ccc(NCc2ccc(C(=O)Nc3cccc(-c4cccs4)c3)cc2)cc1OC [Cpd 32, 4-{[(3,4-dimethoxyphenyl)amino]methyl}-N-[3-(2-thienyl)phenyl]benzamide]	> 20 µM	–	–	–
COc1ccc(NCc2ccc(C(=O)Nc3cc(Cl)c(Cl)cc3N)cc2)cc1OC [Cpd 36, N-(2-Amino-4,5-dichloro-phenyl)-4-[(3,4-dimethoxy-phenylamino)-methyl]-benzamide]	1 to 20 µM	–	–	–
Nc1ccc(-c2cccs2)cc1NC(=O)c1ccc(CNc2nccc(-c3cccnc3)n2)cc1 [Cpd 43, N-[2-amino-5-(2-thienyl)phenyl]-4{[(4-pyridin-3-ylpyrimidin-2-yl)amino]methyl}benzamide]	< 1 µM	–	–	–
COc1ccc(NCc2ccc(C(=O)Nc3csc(-c4cccs4)c3N)cc2)cc1OC [Cpd 62, N-(3-amino-2,2′-bithien-4-yl)-4-{[(3,4-dimethoxyphenyl)amino]methyl}benzamide]	> 20 µM	–	–	–
CCCCc1ccc(N)c(NC(=O)c2ccc(C)cc2)c1 [Cpd 69, N-(2-amino-5-butylphenyl)-4-methylbenzamide]	1 to 20 µM	–	–	–
CCCCc1ccc(NC(=O)c2ccc(C)cc2)c(N)c1 [Cpd 71, N-(2-amino-4-butylphenyl)-4-methylbenzamide]	> 20 µM	–	–	–
COc1ccc(NCc2ccc(C(=O)Nc3cc(C#CCO)ccc3N)cc2)cc1OC [Cpd 76, N-[2-amino-5-(3-hydroxyprop-1-yn-1-yl)phenyl]-4-{[(3,4-dimethoxyphenyl)amino]methyl}benzamide]	< 1 µM	–	–	–
COc1ccc(NCc2ccc(C(=O)Nc3cc(Br)ccc3N)cc2)cc1OC [Cpd 87, N-(2-amino-5-bromophenyl)-4-{[(3,4-dimethoxyphenyl)amino]methyl}benzamide]	1 to 20 µM	–	–	–
COc1ccc(NCc2ccc(C(=O)Nc3cc(/C=C/C(N)=O)ccc3N)cc2)cc1OC [Cpd 88, N-{2-amino-5-[(1E)-3-amino-3-oxoprop-1-en-1-yl]phenyl}-4-{[(3,4-dimethoxyphenyl)amino]methyl}benzamide]	1 to 20 µM	–	–	–
COc1ccc(NCc2ccc(C(=O)Nc3cc(-c4ccoc4)ccc3N)cc2)cc1OC [Cpd 91, N-[2-amino-5-(3-furanyl)phenyl]-4-{[(3,4-dimethoxyphenyl)amino]methyl}benzamide]	–	–	–	IC50 (human HDAC-1): < 1 µM
Nc1ccccc1NC(=O)c1ccc(CNC(=O)OCc2cccnc2)cc1 [MS-275, reference compound]	–	–	–	effective concentration (EC) for p21 induction [2]: 1 µM
COc1cc(NCc2ccc(/C=C/C(=O)Nc3ccccc3N)cc2)cc(OC)c1OC [QQ, reference compound]	–	–	–	IC50 (human HDAC-1; [4]): 1 to 20 µM
